Experiments:
luciferase (Luc) = test: Reporter assay: Hela cells transfected with human RORα1 expression vector and luciferase (Luc) reporter vector; Luc activity corrected with β-Gal activity; format: cell-based, firefly; parameters: key: β-Gal-corrected Luc activity; smaller = inhibition, larger = promotion; conditions: human RORα1 expression vector, rev-DR2/TK-Luc reporter, about 1 day, smaller number = inhibitory, larger = promoting
Method: The reporter assay was used, in which Hela cells transfected with each of a pcDNA3 vector incorporated with the human RORα1 so that the gene can be expressed in animal cells as an expression vector, and a pGL3 promoter vector of which SV40 promoter was replaced with TK promoter as a luciferase expression reporter vector were used.
The Hela cells were placed at a density of 2×10^4 cells/0.1 mL/well on a 96-well cell culture plate (FALCON) by using 10% FBS-DMEM. On the next day, the human RORα1 expression vector, the reporter vector incorporated with 3 copies of rev-DR2 sequences and the HSV thymidine kinase promoter at a position upstream from the luciferase (Luc) gene, and a β-galactosidase (β-Gal) expression vector for control were introduced into the cells by using a transfection reagent (Fugene6, Roche). On the next day, the medium was replaced with 5% FBS-DMEM containing a test compound diluted at a prescribed concentration, after about 1 day, the cell supernatant was removed, then the cells were lysed (Passive Lysis buffer, Promega), the Luc substrate (PicaGene, Toyo Ink) was added to a part of the lysed cells, and the activity of produced Luc was measured as luminescence intensity. Further, the β-Gal activity was measured as intensity of fluorescence generated when 4-methylumbelliferyl β-D-galactoside was added as a substrate, and the activity of Luc corrected for the transfection efficiency with the β-Gal activity was used as the index for evaluation. A smaller number indicates inhibitory action, and a larger number indicates promoting action.

SMILES | melting point | activity of Luc corrected for the transfection efficiency with the β-Gal activity (luciferase (Luc); test compound 0.01 μM) | activity of Luc corrected for the transfection efficiency with the β-Gal activity (luciferase (Luc); test compound 0.1 μM) | activity of Luc corrected for the transfection efficiency with the β-Gal activity (luciferase (Luc); test compound 1 μM) | activity of Luc corrected for the transfection efficiency with the β-Gal activity (luciferase (Luc); test compound 10 μM)
CCCCCCCCc1ccc(N2Cc3ccc(N(C)C)cc3C2=O)cc1 [Compound 10, 6-dimethylamino-2-(4-n-octyl-phenyl)-isoindol-1-one] | 100 to 101 °C | 0.9 | 0.7 | 0.3 | 0.4
CN(C)c1ccc2c(c1)C(=O)N(c1ccc(OCC(=O)O)cc1)C2 [Compound 28, [4-(6-dimethylamino-1-oxo-1,3-dihydro-isoindol-2-yl)-phenoxy]-acetic acid] | 206 to 208 °C | 1.1 | 0.8 | 0.2 | 0.1
CCCCCCCc1ccc(N2Cc3cc(N(C)C)ccc3C2=O)cc1 [Compound 7, 5-dimethylamino-2-(4-n-heptyl-phenyl)-isoindol-1-one] | 133 to 134 °C | 1.0 | 1.1 | 1.1 | 1.1
